Measured values published in US10821079B2, “PKC activators and combinations thereof” (Cognitive Research Enterprises, Inc., priority 2011, dated 2020).

Assays:
[1] = tested on: PKC-ε; test: PKC-ε translocation to membrane in SH-SY5Y cells (Western blot); assay type: cell-based, human
Experimental: Cells were harvested in homogenizing buffer containing 10 mM Tris-Cl (pH 7.4), 1 mM PMSF (phenylmethylsulfonyl fluoride), 1 mM EGTA, 1 mM EDTA, 50 mM NaF, and 20 μM leupeptin and were lysed by sonication. The homogenate was centrifuged at 100,000×g for 15 min at 4° C. to obtain the cytosolic fraction (supernatant) and membrane (pellet). The pellet was resuspended in the homogenizing buffer by sonication. Protein concentration was measured using the Coomassie Plus (Bradford) Protein Assay kit (Pierce, USA). Following quantification, 20 μg of protein from each sample was subjected to SDS-PAGE analysis in 4-20% gradient Tris-Glycine gel (Invitrogen, USA). The separated protein was then transferred to nitrocellulose membrane. The membrane was blocked with BSA at room temperature for 15 min and was incubated with primary antibody over night at 4° C. After the incubation, it was washed three times with TBS-T (Tris Buffered saline-Tween 20) and further incubated with alkaline phosphatase conjugated secondary antibody (Jackson Immunoresearch Laboratories, USA) at 1:10,000 dilution for 45 min. The membrane was finally washed three times with TBS-T and developed using the 1-step NBT-BCIP substrate (Pierce, USA). Western Blot was imaged in the ImageQuant RT-ECL (GE Life Sciences, Piscataway, N.J.) and densitometric quantification was performed using the IMAL software (Blanchette Rockefeller Neurosciences Institute, Morgantown, W. Va.). For translocation assays, PKC activation was represented as the percentage of total protein in the membrane (membrane/cytosol+membrane).
Equal amounts of proteins were loaded in each lane (20 μg) for both the cytosol and membrane fractions. Activation of PKC was calculated as the percentage of total PKC in the membrane (membrane/cytosol+membrane).

[2] = target: PKCα (Homo sapiens, UniProt P17252); test: Activation of purified PKC isozymes, radiometric: PKC-α; assay type: biochemical
Experimental: To measure PKC activity, 10 μg of protein from either cytosol or membrane was incubated for 15 min at 37° C. in the presence of 10 μM histones, 4.89 mM CaCl2, 1.2 μg/μl phosphatidyl-L-serine, 0.18 μg/μl 1,2-dioctanoyl-sn-glycerol, 10 mM MgCl2, 20 mM HEPES (pH 7.4), 0.8 mM EDTA, 4 mM EGTA, 4% glycerol, 8 μg/ml aprotinin, 8 μg/ml leupeptin, 2 mM benzamidine, and 0.5 μCi of [γ-^32P]ATP. [^32P]Phosphoprotein formation was measured by adsorption onto phosphocellulose as described previously. See Nelson et al. (2009) J Biol Chem 284, 34514-34521. For measurements of activation by RA, PKC activity was measured in the absence of diacylglycerol (DAG) and phosphatidylserine, as described by Nelson et al. (2009) J Biol Chem 284, 34514-34521. PKC-δ and PKC-ε were measured in the absence of added EGTA and CaCl^2, as described by Kanno et al. (2006) J Lipid Res 47, 1146-1156. The enzyme was provided as a purified isozyme for in vitro experiments.
(§1) To measure PKC, 10 μl of cell homogenate or purified PKC isoform was incubated for 15 min at 37° C. in the presence of 10 μM histones, 4.89 mM CaCl2, 1.2 μg/μl phosphatidyl-L-serine, 0.18 μg/μl 1,2-dioctanoyl-sn-glycerol, 10 mM MgCl2, 20 mM HEPES (pH 7.4), 0.8 mM EDTA, 4 mM EGTA, 4% glycerol, 8 μg/ml aprotinin, 8 μg/ml leupeptin, and 2 mM benzamidine. [γ32P]ATP (0.5 μCi) was added and 32P-phosphoprotein formation was measured by adsorption onto phosphocellulose as described previously. See Nelson et al., J. Neurochemistry, 1995, 65: 2350-2357.
(§2) PKC activity of each compound was measured in the absence of diacylglycerol and phosphatidylserine and PKC-δ and PKC-ε were measured in the absence of added EGTA and CaCl2, as described by Kanno et al., J. Lipid Res., 2006, 47: 1146-1156. Low concentrations of Ca^2+ were needed because high Ca^2+ can interact with the PKC phosphatidylserine binding site and prevents activation. […] To determine their PKC isoform specificity, the compounds were pre-incubated with purified isoforms of PKC for five minutes and the PKC activity was measured radiometrically.
(§3) The activation and PKC isozyme specificity of DCPLA-ethyl ester was measured following the procedures in Example 1(B) and (C), except that 9 ng of the purified isozyme was used and it was pre-incubated for 5 minutes at room temperature (FIG. 3). PKC-ε activation by DCPLA-tert-butyl ester and DCPLA-retinyl ester was measured in the same manner as DCPLA-ethyl ester (FIG. 3).

[3] = target: T1, PKC-ε (Homo sapiens, UniProt Q02156); test: Activation of purified PKC isozymes, radiometric: PKC-ε; assay type: biochemical
T1 sequence (Q02156 1-737): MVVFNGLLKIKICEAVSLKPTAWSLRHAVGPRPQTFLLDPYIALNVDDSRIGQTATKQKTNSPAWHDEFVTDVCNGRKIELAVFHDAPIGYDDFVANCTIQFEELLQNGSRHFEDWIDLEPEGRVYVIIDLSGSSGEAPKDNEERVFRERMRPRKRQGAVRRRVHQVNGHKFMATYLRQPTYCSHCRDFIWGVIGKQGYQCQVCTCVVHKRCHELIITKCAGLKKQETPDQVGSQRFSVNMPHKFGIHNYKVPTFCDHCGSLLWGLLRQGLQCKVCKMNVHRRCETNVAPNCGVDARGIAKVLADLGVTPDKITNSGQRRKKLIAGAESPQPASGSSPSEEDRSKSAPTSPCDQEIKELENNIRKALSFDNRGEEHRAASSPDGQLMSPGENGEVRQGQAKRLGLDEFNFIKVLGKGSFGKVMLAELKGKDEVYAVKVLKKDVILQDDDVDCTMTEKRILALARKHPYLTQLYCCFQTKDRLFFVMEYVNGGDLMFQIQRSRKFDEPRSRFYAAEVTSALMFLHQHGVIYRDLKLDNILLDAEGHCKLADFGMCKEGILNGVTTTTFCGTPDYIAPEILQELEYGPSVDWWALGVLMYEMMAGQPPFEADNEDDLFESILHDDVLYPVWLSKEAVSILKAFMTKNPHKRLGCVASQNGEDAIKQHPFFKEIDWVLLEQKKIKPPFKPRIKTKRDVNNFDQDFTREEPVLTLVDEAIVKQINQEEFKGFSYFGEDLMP
Experimental: as §1, §2, §3
The EC50 values, PKC specificity, and activation for a select number of DCPLA esters was determined (see Table 1). EC50 values were determined by measuring the lowest concentration that activates by 50% of maximum activation. […] The specificity and activation of PKC by the various esters of DCPLA were calculated from the measurements of activation of PKC isozymes.

| effect on PKC-α (in words) [2] | PKC-ε activation at peak [3] | concentration range activating PKC-ε by more than 50% [3] [µM] | Specificity ε/α ([3]; Activation of PKC-ε ÷ activation or inhibition of PKCα at 3 × EC50) | PKC-ε activation (in words) [3] | Structure (SMILES) | PKC-ε translocation over time (in words) ([1]; 0.27 nM, 0-60 min) | PKC-ε translocation (in words) ([1]; Aβ1-42 monomers 1 μM, DCPLA-ME added to ASPD-treated cells) |
| --- | --- | --- | --- | --- | --- | --- | --- |
| – | – | – | – | – | CCC/C=C/C=C/C(=O)O[C@H]1/C(=C/C(=O)OC)C[C@H]2C[C@H]([C@@H](C)O)OC(=O)C[C@H](O)C[C@@H]3C[C@H](OC(C)=O)C(C)(C)C(O)(C[C@@H]4C/C(=C/C(=O)OC)C[C@H](/C=C/C(C)(C)[C@]1(O)O2)O4)O3 [Bryostatin-1] | remained activated at 60 min | – |
| did not have a major effect | up to 190 % of control | 0.01 to 10 | 12.1 | – | CCCCCC1CC1CC1CC1CCCCCCCC(=O)OC (centres unmarked) [DCPLA-ME, methyl 8-(2-((2-pentylcyclopropyl)methyl)cyclopropyl)octanoate] | – | restored PKC-ε translocation to normal |
| not activated | – | – | – | not activated | CC1=C(/C=C/C(C)=C/C=C/C(C)=C/C(=O)O)C(C)(C)CCC1 [RA, All-trans retinoic acid] | – | – |
